According to article PMC6450719 (Biochimica et biophysica acta. Proteins and proteomics, 2018):

Biological target: T1, human islet amyloid polypeptide (hIAPP, amylin) (Homo sapiens, UniProt P10997)
T1 sequence (P10997 34-70 limits assumed): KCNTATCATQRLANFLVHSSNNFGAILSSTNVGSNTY
Assay: ITC
Type: binding

In the case of `O=C(O[C@@H]1Cc2c(O)cc(O)cc2O[C@@H]1c1cc(O)c(O)c(O)c1)c1cc(O)c(O)c(O)c1` [EGCG], the Kd is reported as about 1.1 µM.
